From patent US11867690B2, “Identification of functional cell states” ([…] AG, priority 2014, dated 2024)
Entries after “also recorded” stand apart in the source; their conditions may differ.

Experiments:
HL-60 cells [1] = assay: Cell physiology assay plate 1a: flow cytometry with MBBR, CALCEIN AM, MITOSOX RED and SYTOXRED; format: cell-based, human
Method: (§1) Cells were deposited into 384 well plates (1×10^6 cells in 40 μl tissue culture media), and serial dilutions of test compounds (or vehicle in the case of controls) were deposited in individual wells using standard robotic techniques. Compound deposition and dilution was performed by BIOMEK FX (5 or 10-step dilutions from 100 to 0.005 μM). Dilutions were prepared from stock solutions of compounds dissolved initially in 100% DMSO. Final volume deposited into each well is 2 μl of each compound dilution (compounds are in a final concentration of 1% DMSO). After incubation in a tissue culture incubator (5% CO2 at 37° C.) for varying periods of time (typically 4 hours), plates were centrifuged at room temperature, followed by removal of 20 μl supernatant fluid. After vibration of the plate to re-suspend cells, a dye mix (Plate 1a Monobromobimane, CALCEIN AM, MITOSOX™ and SYTOSOX™ RED; plate 1b VYBRANVIOLET™ Live Cell Cycle dye, JC-9, and SYTOSOX™ RED) was added in a total volume of 20 μl, followed by an additional mixing step.
Each well of the 384-well plate was sampled with a 6 second sip time, plus 1 second delay between wells, resulting in a total read time for each plate of approximately 45 minutes. Data was acquired using a CYAN™ flow cytometer, with the […]™ software used to compile files for each well on an individual plate using an FCS format. Data for each plate was subsequently analyzed for several quality assurance parameters (total number of events per well, numbers of events associated with morphologically normal events, number of dead cells), as described below.
Flow cytometric analyses of intrinsic cell properties (forward light scatter and light scattered orthogonal to the laser beam) and fluorescence signals derived from the dyes listed in Table 1 was carried out for plates 1a and 1b.
Chem. Soc. […] Technol. […] MITOSOX™ RED is a compound that can diffuse into viable cells and reacts with superoxide anion species, particularly products of mitochondrial respiration; conditions such as cell stress can cause mitochondria to respond (sometimes rapidly) by increasing respiration and/or release superoxide anions; and • (3) SYTOXRED™ to measure cell viability (loss of nuclear membrane integrity). SYTOXRED™ is a high-affinity DNA stain that can only pass through the cytoplasmic and nuclear membranes of cells which have lost the integrity of both membranes; thus, brightly fluorescent cells are dead.

[2] = tested on: phosphorylation of the downstream STAT5 target in K562 cells; assay: Phosphorylation of STAT5 in K562 cells by flow cytometry; format: cell-based; details: Homo sapiens, 0.5 h, 30 min
Method: Cells were deposited onto dilutions of test compounds deposited into individual wells of […], as indicated above. Following incubation in a tissue culture incubator (5% CO2 at 37° C.) for 30 minutes to 12 hr, the cells were pelleted by centrifugation, the supernatant was removed, the cells were re-suspended by vibration in the remaining supernatant fluid, and 50 μl of fixative (1.2% formaldehyde in PBS) was added. Following 15 min incubation (at 37° C.), cells were pelleted by centrifugation, supernatant removed, and the cells were suspended by vibrating the plate.
Cell were permeabilized by adding 150 μl cold absolute methanol, followed by incubation at 4° C. for 15 minutes. Permeabilized cells were centrifuged, supernatant removed, and cells were washed three times with cold (4° C.) PBS containing 4% FBS. Following the final wash, cells were centrifuged, the supernatant was removed, and cells were re-suspended in an antibody cocktail (total volume 20 μl) appropriate for that experiment.

HL-60 cells [3] = assay: Plate 1b: mitochondrial membrane potential (MMP) measured with JC-9 by flow cytometry; format: cell-based, human
Method: as §1, with “step. Plates were returned to the tissue culture incubator (5% CO2 at 37° C.) for an additional 15 min (plate 1a) or 30 min (plate 1b), followed by immediate analysis using the […]-CYAN™.” for “step.”
Measurements identical to those described in Example 2 above were made using a second combination of dyes: • (1) VYBRANVIOLET™ to measure cell cycle in live cells; • (2) JC-9 to measure mitochondrial membrane potential (MMP); and • (3) SYTOXRED™ (as described herein above).
The measurement of mitochondrial membrane potential (MMP) with JC-9 was performed with two independent fluorescence channels (green and red fluorescence signals), as changes in MMP cause aggregation of the dye, with different fluorescence emission by the aggregated versus non-aggregated dye molecules. […] At higher valinomycin concentrations, red fluorescence […]. A unique aspect of this assay is that it correlates changes in MMP (JC-9) and cell death (SYTOXRED™) with the phases of the cell cycle (G1, S, and G2M).
An identical study to the one described before was conducted with exposing HL60 cells exposed to 1.23 μM idarubicin, an analog of daunorubicin which inserts into DNA and prevents it from unwinding during DNA replication and arrests cell division.

[4] = tested on: human peripheral blood monocytes; assay: Kinetics of signal transduction responses to LPS in whole blood monocytes by flow cytometry; format: cell-based; details: LPS alone
Excerpt: Herein, specific dyes that monitor cell membrane permeability (marker for cell death), nuclear membrane permeability (marker for cell death), signal transduction pathways implicated in DNA damage (phospho-Histone H2A, phospho-ATM/ATR, phospho-p53), signal transduction pathways implicated in inflammation (e.g., NF-kB), signal transduction via the MAP kinase pathways (ERK, SAP/JNK, p38), signal transduction via the PI3 Kinase pathway (Akt, GSK3B, RS6K, S6), early apoptotic pathways (e.g., annexin V), mid apoptotic pathways (e.g., cleaved caspase), late apoptotic pathways (e.g., PARP/DNA fragmentation), etc. may be employed.

[5] = 33 μM, cells with normal morphology
[6] = 33 μM, population with altered morphology

## N#CC(C#N)=NNc1ccc(OC(F)(F)F)cc1 [FCCP, carbonyl cyanide-4-(trifluoromethoxy)phenylhydrazone]
HL-60 cells [1]; [5]
  CALCEIN AM: normal
  GSH: normal
  ROS: increased ROS
  nuclear and cytoplasmic membranes (SYTOX Red uptake): intact nuclear and cytoplasmic membranes
HL-60 cells [1]; [6]
  CALCEIN: increased CALCEIN
  GSH: reduced GSH
  ROS: increased ROS
  SYTOXRED: higher SYTOXRED™

## Cc1ccc(NC(=O)c2ccc(CN3CCN(C)CC3)cc2)cc1Nc1nccc(-c2cccnc2)n1 [GLEEVEC, imatinib]
[2]
  inhibition at 2 µM: > 95%

## CNCCC(Oc1ccc(C(F)(F)F)cc1)c1ccccc1 (centres unmarked) [fluoxetine]
HL-60 cells [1]; 100 μM
  CALCEIN AM: reduced CALCEIN AM
  GSH (MBBR): reduced GSH
  ROS (MITOSOX RED): increased ROS
  cell death in relation to cell cycle (SYTOXRED histogram): cells are dying throughout the cell cycle

## CC(=O)[C@]1(O)Cc2c(O)c3c(c(O)c2[C@@H](O[C@H]2C[C@H](N)[C@H](O)[C@H](C)O2)C1)C(=O)c1ccccc1C3=O [idarubicin]
HL-60 cells [3]; 1.23 μM
  JC-9 red fluorescence versus untreated control cells: significantly higher
HL-60 cells [3]; FIG. 6B
  JC-9 green fluorescence: does not increase

## CO/C(=C/C(N)=O)[C@H](C)[C@H](/C=C/c1csc(-c2csc([C@@H](C)/C=C/C=C/C(C)C)n2)n1)OC [myxothiazol]
HL-60 cells [1]; 100 μM
  CALCEIN AM: decrease
  GSH (MBBR): decrease
  ROS (MITOSOX RED): increase
  SYTOXRED (cytoplasmic and nuclear membrane permeability, viability): increase
  cell morphology (light scatter): significant change in cell morphology
HL-60 cells [1]; 100 μM, listed as myxothiozol
  SYTOXRED (cytoplasmic and nuclear membrane permeability, viability): perturbs cytoplasmic and nuclear membrane permeability (viability)

## CC(C)[C@@H]1NC(=O)[C@H](C)OC(=O)[C@@H](C(C)C)NC(=O)[C@@H](C(C)C)OC(=O)[C@H](C(C)C)NC(=O)[C@H](C)OC(=O)[C@@H](C(C)C)NC(=O)[C@@H](C(C)C)OC(=O)[C@H](C(C)C)NC(=O)[C@H](C)OC(=O)[C@@H](C(C)C)NC(=O)[C@@H](C(C)C)OC1=O [valinomycin]
HL-60 cells [3]; FIG. 6A legend
  concentration at peak of JC-9 red and green fluorescence: ~0.045 µM
HL-60 cells [3]; FIG. 6A, Example 4A
  concentration at peak JC-9 green fluorescence: ~0.05 µM
HL-60 cells [3]; with increasing concentration, FIG. 6A
  JC-9 red and green fluorescence: initially increase; also recorded: significantly higher

## lipopolysaccharide [LPS]
[4]
  ERK, Akt and S6 (phosphorylation): activated; also recorded: activates (phosphorylates)
  Iκ kinase (proteasomal degradation of IκBα): activates
